For three compounds, Actual preventive value results are on record in US20150245613A1 (priority 2012, published 2015).

Assay [1] concerns wheat Fusarium head blight. Format: in vivo, Fusarium graminearum. As to conditions: cut wheat ears, 5 days after inoculation.
The test system of another assay is wheat brown rust. Put plainly: Test Example 5: controlling effect on wheat brown rust, field test (cultivar NORIN No. 61), Colby. Format: in vivo, Puccinia recondita. As to conditions: 20 days after spray. The text has this:
A (theoretical) preventive value obtained in a case where the chemical suspension is sprayed=A1+((100−A1)×A2)/100
where A1 and A2 represent (i) the preventive value obtained in a case where the compound I-1 is sprayed and (ii) the preventive value obtained in a case where fluxapyroxad is sprayed.
Wheat seeds (cultivar: NORIN No. 61) were sown in a field in autumn of one (1) year earlier than a year when chemicals were sprayed, and the chemicals were sprayed over wheat plants at the flowering stage of the wheat plants. […] Specifically, the wheat seeds were sown in two rows with 30 cm inter-row spacing in the field in the autumn. (i) Chemical suspensions each of which contained the compound I-1 and Fluxapyroxad, (ii) a chemical suspension containing the compound I-1 and (iii) chemical suspensions each of which contained Fluxapyroxad, were diluted with water so that each ingredient of the chemical suspensions was in a predetermined amount to be used. Each of the chemical suspensions was then sprayed over the wheat plants at the flowering stage in the year. After the spray of the chemical suspensions, a pot, in which diseased wheat plants with brown rust were planted, was put in each test plot between the two rows of the wheat plants so that the wheat plants were prompted to get infected with wheat brown rust. Each test was conducted in three test plots, each of which test plots is of 0.5 m×4 m (2 m^2). In 20 days after the spray of the chemical suspensions, the occurrence of wheat brown rust was investigated in 20 flag leaves which were selected at random from one of the three test plots. An index of the occurrence (index of disease severity of wheat brown rust) was then calculated. A theoretical preventive value (an expected preventive value) obtained in a case where the chemical suspension containing the compound I-1 and Fluxapyroxad is sprayed was calculated, by use of the above Colby's formula (see Test Example 1), on the basis of (i) a preventive value obtained in a case where only the compound I-1 is sprayed and (ii) a preventive value obtained in a case where only fluxapyroxad is sprayed.

In assay [2] the test system is wheat Fusarium head blight. Format: in vivo, Fusarium graminearum. The settings on record: cut wheat ears, 5 days after inoculation. The source holds these as a separate data set.

Where two headings read alike, the source gives them in different places.

`Cn1cc(C(=O)Nc2ccccc2-c2cc(F)c(F)c(F)c2)c(C(F)F)n1` [Fluxapyroxad, 3-(difluoromethyl)-1-methyl-N-(3′,4′,5′-trifluorobiphenyl-2-yl)pyrazole-4-carboxamido]: the Actual preventive value is 8 in assay [1] (Compound I-2 0 g/ha, Fluxapyroxad 10 g/ha); 16 in assay [1] (Compound I-2 0 g/ha, Fluxapyroxad 20 g/ha); 14 in assay [1] (Compound I-2 0 g/ha, Fluxapyroxad 30 g/ha); 9 in assay [1] (Compound I-2 0 g/ha, Fluxapyroxad 40 g/ha); 29.3 in the assay with wheat brown rust (Compound I-1 0 g/ha, Fluxapyroxad 7.5 g/ha, from average disease occurrence area ratios of flag leaves); 6.8 with wheat brown rust (Compound I-1 0 g/ha, Fluxapyroxad 7.5 g/ha, from disease occurrence ratios of flag leaves). Also, the Actual preventive value with wheat brown rust (Compound I-1 0 g/ha, Fluxapyroxad 30 g/ha, from average disease occurrence area ratios of flag leaves) came out at 80.6; in the assay on wheat brown rust (Compound I-1 0 g/ha, Fluxapyroxad 30 g/ha, from disease occurrence ratios of flag leaves), 64.4; in assay [2] (Compound I-1 0 g/ha, Fluxapyroxad 10 g/ha), 3; in assay [2] (Compound I-1 0 g/ha, Fluxapyroxad 20 g/ha) it was 0; in assay [2] (Compound I-1 0 g/ha, Fluxapyroxad 40 g/ha), 4.

Take `C[C@]1(CCl)CC[C@@H](Cc2ccc(F)cc2)[C@]1(O)Cn1cncn1` (racemic) [Compound I-2, (1RS,2SR,5SR)-2-chloromethyl-5-(4-fluorobenzyl)-2-methyl-1-(1H-1,2,4-triazole-1-ylmethy)cyclopentanol]: the Actual preventive value is 34 in assay [1] (Compound I-2 5 g/ha, Fluxapyroxad 0 g/ha); 45 in assay [1] (Compound I-2 10 g/ha, Fluxapyroxad 0 g/ha); 62 in assay [1] (Compound I-2 15 g/ha, Fluxapyroxad 0 g/ha); 78 in assay [1] (Compound I-2 20 g/ha, Fluxapyroxad 0 g/ha).

Take `C[C@]1(CCl)CC[C@@H](Cc2ccc(Cl)cc2)[C@]1(O)Cn1cncn1` (racemic) [Compound I-1, (1RS,2SR,5SR)-5-(4-chlorobenzyl)-2-chloromethyl-2-methyl-1-(1H-1,2,4-triazole-1-ylmethyl)cyclopentanol]: the Actual preventive value in the assay with wheat brown rust (Compound I-1 7.5 g/ha, Fluxapyroxad 0 g/ha, from average disease occurrence area ratios of flag leaves) came out at 42.6; in the assay on wheat brown rust (Compound I-1 7.5 g/ha, Fluxapyroxad 0 g/ha, from disease occurrence ratios of flag leaves) it was 16.4; in assay [2] (Compound I-1 5 g/ha, Fluxapyroxad 0 g/ha), 13; in assay [2] (Compound I-1 10 g/ha, Fluxapyroxad 0 g/ha), 39; in assay [2] (Compound I-1 20 g/ha, Fluxapyroxad 0 g/ha) it was 61.
